Measured values reported in ChEMBL document CHEMBL4813985, “Lead optimization generates selenium-containing miconazole CYP51 inhibitors with improved pharmacological profile for the treatment of fungal infections” (Eur J Med Chem, 2021).
Converted amounts (≈) assume the structure as drawn.

Legend:
Aspergillus fumigatus = test: Antifungal activity against Aspergillus fumigatus CMGCC3.7795 measured after 72 hrs by broth microdilution assay; type: functional
Pichia kudriavzevii = test: Antifungal activity against Candida krusei AS2.1045 measured after 24 hrs by broth microdilution assay; type: functional
[1] = Metabolic stability in mouse liver microsomes assessed as clearance; type: ADME, Microsome; conditions: read-out: CLH
Candida albicans [2] = test: Antifungal activity against fluconazole-resistant Candida albicans 901 assessed as inhibition of microbial growth after 24 hrs by broth microdilution method; type: functional
[3] = Hemolytic activity in rabbit RBC assessed as hemolysis ratio at 2 ug/ml measured after 3 hrs by microplate reader assay relative to control; type: ADME, cell-based, Oryctolagus cuniculus, Erythrocyte; conditions: rabbit red blood cells (erythrocytes), at 2 µg/mL, read-out: Activity
[4] = Metabolic stability in mouse liver microsomes assessed as half life; type: ADME, Microsome
HL-60 = test: Cytotoxicity against human HL-60 cells assessed as reduction in cell viability incubated for 96 hrs by MTT assay; type: cell-based; conditions: HL-60, 96 h
[Candida] zeylanoides = Antifungal activity against Candida zeylanoides CMGCC2.3739 measured after 24 hrs by broth microdilution assay; type: functional; conditions: Dujonia zeylanoides
Candida albicans [5] = test: Antifungal activity against fluconazole-resistant Candida albicans 17# assessed as inhibition of microbial growth after 24 hrs by broth microdilution method; type: functional
[6] = Hemolytic activity in rabbit RBC assessed as hemolysis ratio at 1 ug/ml measured after 3 hrs by microplate reader assay relative to control; type: ADME, cell-based, Oryctolagus cuniculus, Erythrocyte; conditions: rabbit red blood cells (erythrocytes), at 1 µg/mL, read-out: Activity
[7] = Hemolytic activity in rabbit RBC assessed as hemolysis ratio at 4 ug/ml measured after 3 hrs by microplate reader assay relative to control; type: ADME, cell-based, Oryctolagus cuniculus, Erythrocyte; conditions: rabbit red blood cells (erythrocytes), at 4 µg/mL, read-out: Activity
[8] = Hemolytic activity in rabbit RBC assessed as hemolysis ratio at 16 ug/ml measured after 3 hrs by microplate reader assay relative to control; type: ADME, cell-based, Oryctolagus cuniculus, Erythrocyte; conditions: rabbit red blood cells (erythrocytes), at 16 µg/mL, read-out: Activity
Candida parapsilosis = test: Antifungal activity against Candida parapsilosis ATCC 22019 measured after 24 hrs by broth microdilution assay; type: functional; conditions: Lodderomyces parapsilosis
Candida albicans [9] = test: Antifungal activity against Candida albicans CPCC400616 measured after 24 hrs by broth microdilution assay; type: functional
MCF-10A = test: Cytotoxicity against human MCF-10A cells assessed as reduction in cell viability incubated for 96 hrs by MTT assay; type: cell-based; conditions: read-out: IC50
MDA-MB-231 = test: Cytotoxicity against human MDA-MB-231 cells assessed as reduction in cell viability incubated for 96 hrs by MTT assay; conditions: MDA-MB-231, 96 h
Candida albicans [10] = test: Antifungal activity against fluconazole-resistant Candida albicans 632 assessed as inhibition of microbial growth after 24 hrs by broth microdilution method; type: functional
Erythrocyte = test: Hemolytic activity in rabbit RBC measured after 3 hrs by microplate reader assay; type: ADME, cell-based, Oryctolagus cuniculus
Candida albicans [11] = test: Antifungal activity against Candida albicans ATCC SC5314 measured after 24 hrs by broth microdilution assay; type: functional
Cryptococcus neoformans = test: Antifungal activity against Cryptococcus neoformans CMGCC2.3161 measured after 72 hrs by broth microdilution assay; type: functional
Candida albicans [12] = test: Antifungal activity against fluconazole-resistant Candida albicans CaR assessed as inhibition of microbial growth after 24 hrs by broth microdilution method; type: functional
Candida albicans [13] = test: Antifungal activity against fluconazole-resistant Candida albicans 904 assessed as inhibition of microbial growth after 24 hrs by broth microdilution method; type: functional
[14] = Hemolytic activity in rabbit RBC assessed as hemolysis ratio at 8 ug/ml measured after 3 hrs by microplate reader assay relative to control; type: ADME, cell-based, Oryctolagus cuniculus, Erythrocyte; conditions: rabbit red blood cells (erythrocytes), at 8 µg/mL, read-out: Activity
PC-3 = test: Cytotoxicity against human PC3 cells assessed as reduction in cell viability incubated for 96 hrs by MTT assay; type: cell-based; conditions: PC-3, 96 h, read-out: IC50
Nakaseomyces glabratus = test: Antifungal activity against Candida glabrata measured after 24 hrs by broth microdilution assay; type: functional
Candida albicans [15] = test: Potency index, ratio of fluconazole MIC to test compound MIC for Candida albicans CPCC400616 measured after 24 hrs by broth microdilution assay; type: functional
Candida albicans [16] = test: Potency index, ratio of miconazole MIC to test compound MIC for Candida albicans CPCC400616 measured after 24 hrs by broth microdilution assay; type: functional

Clc1ccc(C(Cn2ccnc2)[Se]Cc2ccccc2Cl)c(Cl)c1 (stereo not given)
MIC (Aspergillus fumigatus): 2 µg/mL (≈ 4.5 µM)
MIC (Pichia kudriavzevii): 0.13 µg/mL (≈ 0.292 µM)
CLint scaled [1]: 1310 mL/min/kg
MIC (Candida albicans [2]): 0.5 µg/mL
hemolysis at 3 h, 2 ug/ml [3]: 3.15%
half-life [4]: 4.2 min
IC50 (HL-60): 1020 nM
MIC ([Candida] zeylanoides): 1 µg/mL (≈ 2.25 µM)
MIC (Candida albicans [5]): 0.13 µg/mL
hemolysis at 3 h, 1 ug/ml [6]: 0%
hemolysis at 3 h, 4 ug/ml [7]: 58.9%
hemolysis at 3 h, 16 ug/ml [8]: 98.2%
MIC (Candida parapsilosis): 0.13 µg/mL (≈ 0.292 µM)
MIC (Candida albicans [9]): 0.02 µg/mL (≈ 0.045 µM)
IC50 (MCF-10A): 30.2 µM
IC50 (MDA-MB-231): 9.06 µM
MIC (Candida albicans [10]): 1 µg/mL
MHC (Erythrocyte): 4 µg/mL
MIC (Candida albicans [11]): 0.01 µg/mL (≈ 0.0225 µM)
MIC (Cryptococcus neoformans): 0.25 µg/mL (≈ 0.562 µM)
MIC (Candida albicans [12]): 0.06 µg/mL
MIC (Candida albicans [13]): 0.25 µg/mL
hemolysis at 3 h, 8 ug/ml [14]: 93.2%
IC50 (PC-3): 13.1 µM
MIC (Nakaseomyces glabratus): 0.5 µg/mL (≈ 1.12 µM)

Cc1cccc(C)c1[Se]C(Cn1ccnc1)c1ccc(F)cc1F (stereo not given)
MIC (Aspergillus fumigatus): 8 µg/mL (≈ 20.4 µM)
MIC (Pichia kudriavzevii): 0.02 µg/mL (≈ 0.0511 µM)
Ratio (Candida albicans [15]): 8
MIC (Candida albicans [2]): 2 µg/mL
MIC ([Candida] zeylanoides): 0.13 µg/mL (≈ 0.332 µM)
MIC (Candida albicans [5]): 0.25 µg/mL
MIC (Candida parapsilosis): 0.06 µg/mL (≈ 0.153 µM)
MIC (Candida albicans [9]): 0.03 µg/mL (≈ 0.0767 µM)
MIC (Candida albicans [10]): 1 µg/mL
Ratio (Candida albicans [16]): 8
MIC (Candida albicans [11]): 0.02 µg/mL (≈ 0.0511 µM)
MIC (Cryptococcus neoformans): 0.25 µg/mL (≈ 0.639 µM)
MIC (Candida albicans [12]): 8 µg/mL
MIC (Candida albicans [13]): 2 µg/mL
MIC (Nakaseomyces glabratus): 0.5 µg/mL (≈ 1.28 µM)
